SMILES strings stand for the structures.

Usually IC50 stands for the midpoint of a concentration-inhibition curve. A low value points to inhibition by little substance.

This assay concerns the target Adenosine receptor A2a (Homo sapiens, UniProt P29274). Kind of assay: A2a binding affinity assay C. How it is done: Method (C): Measurement of A2a Binding Affinity Using an Alternative Radioligand Binding AssayMembranes used in this procedure were made by washing cell cultures twice with DPBS buffer (Dulbecco's phosphate buffered saline without calcium and magnesium, ThermoFisher Scientific, Cat. No. A1285601), and harvesting the cell cultures by mechanical scraping. The cells were collected by centrifugation and re-suspended in 10 mM HEPES, pH 7.4 containing 0.1 mM benzamidine (Sigma, Cat. No. B6506) and 0.1 mM PMSF (phenylmethylsulfonyl fluoride, Sigma, Cat. No. 10837091001). Cells were freeze-thawed twice in a dry ice/ethanol bath and homogenized with 25 to 30 strokes in a glass dounce homogenizer (Wheaton, Cat. No. 357546). Membranes were pelleted at 40,000×g for 20 min at 4° C. and re-suspended in assay buffer (5 mM HEPES, pH 7.4, 5 mM MgCl2; supplemented with 0.1 mM benzamidine) at a protein concentration of 2.6 mg/mL. Protein concentration was determined by the Bio-Rad method (Bio-Rad, Cat. No. 5000002). […] After normalization to total and non-specific binding, the percent effect at each compound concentration was calculated. The plot of percent effect versus the log of compound concentration was analyzed electronically using a 4-parameter logistic fit based on the Levenberg-Marquardt algorithm to generate IC50 values.

Sequence of Adenosine receptor A2a (P29274 whole entry): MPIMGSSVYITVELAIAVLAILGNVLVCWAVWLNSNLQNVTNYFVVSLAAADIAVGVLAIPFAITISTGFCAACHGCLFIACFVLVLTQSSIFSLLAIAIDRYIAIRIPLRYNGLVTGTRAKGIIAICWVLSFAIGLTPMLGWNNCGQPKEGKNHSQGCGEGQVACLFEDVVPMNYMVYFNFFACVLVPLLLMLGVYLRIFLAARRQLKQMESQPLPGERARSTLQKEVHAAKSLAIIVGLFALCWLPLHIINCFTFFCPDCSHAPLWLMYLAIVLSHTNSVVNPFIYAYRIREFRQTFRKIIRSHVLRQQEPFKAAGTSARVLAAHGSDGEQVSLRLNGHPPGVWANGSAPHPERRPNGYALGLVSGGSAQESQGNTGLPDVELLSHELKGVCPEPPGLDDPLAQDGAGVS

As for `Nc1nc(-c2ccccc2)c(C2CC2)c2nc(CCN3CC(F)(F)C3)nn12` [US12414952, Example 20.6], the IC50 was 122 nM. This counts as sub-micromolar.

Values taken from BindingDB's records for patent US12414952 (Merck Sharp & Dohme, 2025).
